Experimental findings from patent publication US20220170930A1, “METHOD FOR SCREENING COMPOUND FOR TREATING OR PREVENTING POLYQ-RELATED NEURODEGENERATIVE DISEASES” (FUDAN UNIVERSITY, priority 2019, published 2022) are described below.

One series concerns the target Q46-GFP. Kind of series: OI-RD affinity reaction parameters with Q46-GFP. The class given is binding. The source says: (1) PolyQ-GFP cDNA sequence (expressing Met-polyQ-GFP, wherein polyQ was Q72 or Q25) was synthesized de novo and subcloned into pcDNA vector. […] And the same method was used to obtain cells expressing Q53-GFP, cells expressing Q46-GFP, and cells expressing Q38-GFP.

The target in a further series is MBP-ATXN3-Q68 (Homo sapiens, UniProt P54252, INS305QQQQQQQQQQQQQQQQQQQQQQQQQQQQQQQQQQQQQQQQQQQQQQQQQQQQQQQQQQ). Kind of series: OI-RD affinity screening with MBP-ATXN3-Q68. The arrangement: His8 with TEV protease cleavage site; made in house; host or cells: Escherichia coli Rosetta(DE3)pLsyS. The settings on record: OI-RD difference images. The format is binding. The protocol:
Screening was conducted using a method similar to 1.1, except for that the target protein HTTexon1-Q72-MBP in step (1) of 1.1 was replaced with MBP-ATXN3-Q68 and the target protein HTTexon1-Q25-MBP in step (2) of 1.1 was replaced with MBP-ATXN3-Q28, to obtain compounds that can selectively bind to ATXN3 with abnormally expanded polyQ (MBP-ATXN3-Q68).

For series [1], the target named is T1, mutant ATXN1 protein (His-ATXN1-Q92) (Homo sapiens, UniProt P54253, INS208QQQQQQQQQQQQQQQQQQQQQQQQQQQQQQQQQQQQQQQQQQQQQQQQQQQQQQQQQQQQQQQQQQQQQQQQQQQQQQQQ).
T1 construct: expressed in transfected cells; host or cells: HEK293T cells (ATCC, CRL-3216)
T1 sequence (P54253 with tags, fused parts or gaps with the stated changes): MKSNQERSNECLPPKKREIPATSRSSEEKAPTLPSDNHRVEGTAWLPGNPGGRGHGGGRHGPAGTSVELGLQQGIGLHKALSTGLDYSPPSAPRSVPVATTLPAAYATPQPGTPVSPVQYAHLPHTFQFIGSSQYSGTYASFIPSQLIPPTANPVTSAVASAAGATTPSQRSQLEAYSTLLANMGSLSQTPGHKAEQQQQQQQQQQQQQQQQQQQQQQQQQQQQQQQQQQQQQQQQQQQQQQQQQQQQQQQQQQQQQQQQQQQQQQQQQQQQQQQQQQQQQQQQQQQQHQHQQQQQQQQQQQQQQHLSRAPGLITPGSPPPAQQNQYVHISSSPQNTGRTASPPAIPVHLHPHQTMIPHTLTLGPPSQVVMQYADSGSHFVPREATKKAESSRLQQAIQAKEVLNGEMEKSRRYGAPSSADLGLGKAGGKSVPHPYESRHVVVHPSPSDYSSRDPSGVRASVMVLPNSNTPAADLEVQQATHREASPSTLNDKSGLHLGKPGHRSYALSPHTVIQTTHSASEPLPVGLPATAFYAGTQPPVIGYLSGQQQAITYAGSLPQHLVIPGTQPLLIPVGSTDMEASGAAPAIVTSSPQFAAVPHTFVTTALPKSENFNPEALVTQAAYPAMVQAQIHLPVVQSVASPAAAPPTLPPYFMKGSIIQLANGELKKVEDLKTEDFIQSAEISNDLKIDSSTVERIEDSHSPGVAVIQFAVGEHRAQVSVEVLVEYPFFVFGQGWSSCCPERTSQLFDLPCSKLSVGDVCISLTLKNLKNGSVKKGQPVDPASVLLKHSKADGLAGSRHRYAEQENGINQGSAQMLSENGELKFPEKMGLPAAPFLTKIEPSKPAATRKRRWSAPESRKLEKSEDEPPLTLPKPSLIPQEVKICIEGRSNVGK
Kind of series: HTRF mutant ATXN1 level in His-ATXN1-Q92-expressing cells. The settings on record: 100 nM, 2 days, anti-His-Tb/MW1-D2. The format is cell-based.

The subject of series [2] is mHTT. Kind of series: Western-blot mHTT level in primary cultured cortical neurons. The settings on record: 2 days. The class given is cell-based, mouse. The protocol: Primary cultured cortical neurons: The brains of Hdh^Q140/Q7 and Hdh^Q7/Q7 newborn mice (P0) were dissected, digested, dissociated, and cultured.
(1) The primary cultured Hdh^Q140/Q7 and Hdh^Q7/Q7 mouse cortical neuron cells were treated with the compound for 2 days.

Series [3] deals with T2, wild-type ATXN3 protein (ATXN3-Q27) (Homo sapiens, UniProt P54252, G306R/INS305QQQQQQQQQQQQQQQQQ/V212M).
T2 construct: endogenous in cells; host or cells: wild-type fibroblasts (Q27) and/or the normal allele in SCA3 patient fibroblasts
T2 sequence (P54252 with tags, fused parts or gaps isoform P54252-1 with the stated changes): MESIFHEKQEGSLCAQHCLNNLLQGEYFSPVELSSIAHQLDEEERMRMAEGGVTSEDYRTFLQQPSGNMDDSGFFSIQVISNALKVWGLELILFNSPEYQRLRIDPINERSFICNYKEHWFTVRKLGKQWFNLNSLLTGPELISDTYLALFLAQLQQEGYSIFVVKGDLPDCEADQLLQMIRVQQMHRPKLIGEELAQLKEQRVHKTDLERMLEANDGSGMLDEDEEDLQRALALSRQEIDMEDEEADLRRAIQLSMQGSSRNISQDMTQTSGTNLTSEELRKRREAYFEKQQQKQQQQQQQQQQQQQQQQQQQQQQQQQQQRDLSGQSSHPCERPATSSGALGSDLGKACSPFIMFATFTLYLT
The series can be described thus: Western-blot wild-type ATXN3 level in fibroblasts. The class given is cell-based. The settings on record: 100 nM (compound 4: 50 nM), 2 days. As for the experimental part:
Then the levels of mutant ATXN3 protein (ATXN3-Q74, SEQ ID NO: 2) and wild-type ATXN3 protein (ATXN3-Q27, SEQ ID NO: 7) were determined by Western-blots (FIG. 26). […] Therefore, the compound of the present invention can be used to treat SCA3.

Series [4] addresses T3, mHTT (Homo sapiens, UniProt P42858, INS38QQQQQQQQQQQQQQQQQQQQQQQQQQ).
T3 construct: endogenous in cells; host or cells: HD patient iPSC-derived neurons (Q47)
The series can be described thus: HTRF mHTT level in HD patient iPSC-derived neurons. The settings on record: iPSC-derived neurons (Q47). The class given is cell-based. Background: TR-FRET usually uses a lanthanide donor and a delayed reading to cut background.

Series [5] deals with T4, full-length mHTT (flHTT-Q73) (Homo sapiens, UniProt P42858, INS38QQQQQQQQQQQQQQQQQQQQQQQQQQQQQQQQQQQQQQQQQQQQQQQQQQQQ).
T4 construct: LC3B, full-length mHTT (flHTT-Q73) and full-length HTT-Q23 (flHTT-Q23); protein A (N, cleaved yes); made in house; host or cells: human embryonic kidney E293 cells
T4 sequence (P42858 with tags, fused parts or gaps with the stated changes): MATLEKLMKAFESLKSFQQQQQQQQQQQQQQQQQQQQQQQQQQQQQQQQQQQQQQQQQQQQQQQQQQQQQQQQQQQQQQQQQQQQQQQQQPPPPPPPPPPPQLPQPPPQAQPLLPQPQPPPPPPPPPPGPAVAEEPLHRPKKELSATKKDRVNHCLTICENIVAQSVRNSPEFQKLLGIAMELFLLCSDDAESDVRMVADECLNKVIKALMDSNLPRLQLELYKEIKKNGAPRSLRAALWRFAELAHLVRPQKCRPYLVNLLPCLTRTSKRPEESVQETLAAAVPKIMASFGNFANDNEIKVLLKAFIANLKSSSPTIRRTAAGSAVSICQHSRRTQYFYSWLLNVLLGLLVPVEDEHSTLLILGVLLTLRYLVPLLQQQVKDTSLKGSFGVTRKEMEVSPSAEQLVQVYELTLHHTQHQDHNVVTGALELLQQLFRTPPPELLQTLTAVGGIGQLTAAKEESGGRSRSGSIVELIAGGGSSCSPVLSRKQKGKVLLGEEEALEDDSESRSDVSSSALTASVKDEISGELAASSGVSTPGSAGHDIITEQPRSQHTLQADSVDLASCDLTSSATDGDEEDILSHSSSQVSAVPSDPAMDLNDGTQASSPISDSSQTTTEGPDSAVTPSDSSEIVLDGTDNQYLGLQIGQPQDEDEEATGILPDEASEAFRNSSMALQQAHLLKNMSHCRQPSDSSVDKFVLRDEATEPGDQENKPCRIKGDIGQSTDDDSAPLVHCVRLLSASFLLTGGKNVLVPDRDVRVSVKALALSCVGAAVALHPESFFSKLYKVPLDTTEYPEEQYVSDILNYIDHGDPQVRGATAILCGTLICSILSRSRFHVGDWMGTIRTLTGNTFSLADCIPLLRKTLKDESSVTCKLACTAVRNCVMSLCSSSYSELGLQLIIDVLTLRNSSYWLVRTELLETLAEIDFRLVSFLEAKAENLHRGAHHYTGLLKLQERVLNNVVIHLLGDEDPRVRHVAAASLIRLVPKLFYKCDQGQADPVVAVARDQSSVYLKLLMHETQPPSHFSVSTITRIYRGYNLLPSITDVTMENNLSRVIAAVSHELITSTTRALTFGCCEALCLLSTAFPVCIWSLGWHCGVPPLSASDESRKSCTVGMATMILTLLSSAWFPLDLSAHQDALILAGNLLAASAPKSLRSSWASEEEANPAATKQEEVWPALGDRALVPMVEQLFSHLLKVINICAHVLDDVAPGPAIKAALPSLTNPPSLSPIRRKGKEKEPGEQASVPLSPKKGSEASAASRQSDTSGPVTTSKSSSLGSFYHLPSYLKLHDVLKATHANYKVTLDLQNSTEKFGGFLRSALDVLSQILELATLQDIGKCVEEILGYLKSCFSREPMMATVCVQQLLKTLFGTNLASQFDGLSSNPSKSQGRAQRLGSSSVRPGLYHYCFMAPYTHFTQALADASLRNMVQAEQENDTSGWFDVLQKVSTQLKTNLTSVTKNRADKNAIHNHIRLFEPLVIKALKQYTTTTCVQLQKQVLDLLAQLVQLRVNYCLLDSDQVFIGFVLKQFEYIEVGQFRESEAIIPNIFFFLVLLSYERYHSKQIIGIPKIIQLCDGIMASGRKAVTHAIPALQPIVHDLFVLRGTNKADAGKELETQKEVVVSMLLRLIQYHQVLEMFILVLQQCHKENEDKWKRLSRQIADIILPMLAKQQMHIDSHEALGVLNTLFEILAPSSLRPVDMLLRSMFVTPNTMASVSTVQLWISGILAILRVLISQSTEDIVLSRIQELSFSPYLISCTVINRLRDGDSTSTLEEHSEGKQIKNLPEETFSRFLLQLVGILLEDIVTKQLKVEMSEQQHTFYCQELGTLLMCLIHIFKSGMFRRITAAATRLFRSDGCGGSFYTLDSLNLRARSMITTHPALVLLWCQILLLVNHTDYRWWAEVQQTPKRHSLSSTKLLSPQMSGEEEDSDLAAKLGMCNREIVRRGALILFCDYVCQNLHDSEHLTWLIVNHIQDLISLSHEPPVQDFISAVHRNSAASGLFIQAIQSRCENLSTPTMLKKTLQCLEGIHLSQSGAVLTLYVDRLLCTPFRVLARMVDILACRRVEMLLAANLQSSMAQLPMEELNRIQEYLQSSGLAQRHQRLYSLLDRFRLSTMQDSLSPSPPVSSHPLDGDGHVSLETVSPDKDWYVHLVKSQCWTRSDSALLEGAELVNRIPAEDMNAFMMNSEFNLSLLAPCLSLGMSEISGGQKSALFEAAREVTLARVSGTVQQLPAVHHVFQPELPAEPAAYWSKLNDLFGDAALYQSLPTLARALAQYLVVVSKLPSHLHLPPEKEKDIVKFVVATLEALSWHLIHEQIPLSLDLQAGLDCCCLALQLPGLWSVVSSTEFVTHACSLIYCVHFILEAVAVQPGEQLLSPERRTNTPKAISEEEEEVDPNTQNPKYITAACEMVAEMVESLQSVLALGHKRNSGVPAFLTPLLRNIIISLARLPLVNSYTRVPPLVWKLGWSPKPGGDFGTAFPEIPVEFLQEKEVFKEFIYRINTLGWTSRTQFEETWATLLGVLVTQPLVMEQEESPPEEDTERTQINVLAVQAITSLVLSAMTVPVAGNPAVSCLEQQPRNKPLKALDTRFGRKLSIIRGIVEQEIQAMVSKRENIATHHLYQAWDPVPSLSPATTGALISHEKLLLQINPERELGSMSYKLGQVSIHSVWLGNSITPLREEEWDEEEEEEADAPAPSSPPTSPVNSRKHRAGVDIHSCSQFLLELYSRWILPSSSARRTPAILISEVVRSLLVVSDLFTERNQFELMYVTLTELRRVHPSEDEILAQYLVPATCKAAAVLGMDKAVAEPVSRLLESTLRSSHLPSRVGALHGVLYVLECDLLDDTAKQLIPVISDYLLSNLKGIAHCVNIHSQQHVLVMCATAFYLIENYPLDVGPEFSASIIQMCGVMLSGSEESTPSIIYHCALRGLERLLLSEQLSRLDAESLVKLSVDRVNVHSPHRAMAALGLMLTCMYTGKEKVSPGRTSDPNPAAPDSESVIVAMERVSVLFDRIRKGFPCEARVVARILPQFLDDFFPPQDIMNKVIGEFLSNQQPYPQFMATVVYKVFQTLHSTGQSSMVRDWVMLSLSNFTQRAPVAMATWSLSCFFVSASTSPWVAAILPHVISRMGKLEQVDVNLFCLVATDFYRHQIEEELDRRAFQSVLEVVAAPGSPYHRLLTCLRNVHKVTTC
Kind of series: OI-RD affinity reaction parameters with flHTT-Q73. The settings on record: OI-RD, flHTT-Q73. The format is binding. The source says:
Each compound was printed in triplicates on the microarray. 01-RD was used to measure the affinity reaction parameters of the compound with LC3B, full-length mHTT (flHTT-Q73) and full-length HTT-Q23 (flHTT-Q23).

The next series relates to SQSTM1/p62. Kind of series: SQSTM1/p62 level in mouse cortices after ip injection. The class given is in vivo. The settings on record: HD mice. The protocol: Using a method similar to 6.2, Hdh^Q140/Q7 mice were administered with injections. A method similar to 7.1 was used to detect the effects of ip-injection of compounds on other known autophagy selective substrate proteins (SQSTM1/p62) in the cortical tissue of Hdh^Q140/Q7 mice.

A short description of the next series: in vivo. The settings on record: mouse, ip, 0.5 mg/kg.
Series [6] deals with T5, binding between HTTexon1-Q25-MBP and LC3B (Homo sapiens, UniProt Q9GZQ8).
T5 construct: His8 (N, cleaved yes); GST (from pGEX-6P1) (N, cleaved yes); made in house; LC3B: E. coli BL21(DE3)pLsyS
The series can be described thus: In vitro pull-down HTTexon1-Q25-MBP and LC3B. The class given is biochemical. The settings on record: 1 μM compound 1 or 100 nM compound 4. As for the experimental part:
Incubation was conducted. Then the unbound proteins were removed.
(3) The resin-bound proteins were eluted and analyzed by SDS-PAGE and Western-blots with anti-LC3 antibody (FIG. 22a).

The next series addresses T6, His-ATXN1-Q92 (Homo sapiens, UniProt P54253, INS208QQQQQQQQQQQQQQQQQQQQQQQQQQQQQQQQQQQQQQQQQQQQQQQQQQQQQQQQQQQQQQQQQQQQQQQQQQQQQQQQ).
T6 construct: made in house; host or cells: HEK293T cells (ATCC, CRL-3216)
The series can be described thus: OI-RD affinity screening with His-ATXN1-Q92. The class given is binding. The settings on record: OI-RD difference images. The protocol: (1) PolyQ-ATXN1 cDNA (where polyQ is Q92) was synthesized de novo and subcloned into pcDNA vector. It transfected into HEK293T cells (ATCC, CRL-3216) to obtain cells expressing His-ATXN1-Q92 (SEQ ID NO: 3 with a His tag at the N-terminal).
(2) The His-ATXN1-Q92 expressed in (1) was purified to obtain ATXN1 with abnormally expanded polyQ.
To identify compound(s) that can bind to ATXN1 with abnormally expanded polyQ, screening was conducted using a method similar to step (1) of 1.1, except for that the target protein HTTexon1-Q72-MBP in step (1) of 1.1 was replaced with His-ATXN1-Q92.

Another series deals with T7, flHTT-Q73 (Homo sapiens, UniProt P42858, INS38QQQQQQQQQQQQQQQQQQQQQQQQQQQQQQQQQQQQQQQQQQQQQQQQQQQQ).
T7 construct: LC3B, full-length mHTT (flHTT-Q73) and full-length HTT-Q23 (flHTT-Q23); protein A (N, cleaved yes); made in house; host or cells: human embryonic kidney E293 cells
T7 sequence (P42858 with tags, fused parts or gaps with the stated changes): as the sequence (P42858 with tags, fused parts or gaps with the stated changes) above
Kind of series: MST affinity with flHTT-Q73. The format is binding. The settings on record: MST, flHTT-Q73, protein 500 nM; read-out: Kd.

MBP-ATXN3-Q68, sequence (P54252 with tags, fused parts or gaps isoform P54252-4 with the stated changes): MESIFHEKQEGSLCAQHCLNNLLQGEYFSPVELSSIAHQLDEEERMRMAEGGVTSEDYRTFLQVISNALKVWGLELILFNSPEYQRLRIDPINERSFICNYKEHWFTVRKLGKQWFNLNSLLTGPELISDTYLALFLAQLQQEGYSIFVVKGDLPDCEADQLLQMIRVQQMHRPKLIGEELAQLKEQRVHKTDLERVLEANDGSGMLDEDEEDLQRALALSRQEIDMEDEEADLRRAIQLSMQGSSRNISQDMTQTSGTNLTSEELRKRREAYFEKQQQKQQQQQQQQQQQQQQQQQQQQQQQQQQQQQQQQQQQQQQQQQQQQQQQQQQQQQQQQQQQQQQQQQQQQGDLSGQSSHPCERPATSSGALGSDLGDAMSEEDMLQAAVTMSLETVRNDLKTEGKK
T6 sequence (P54253 with tags, fused parts or gaps with the stated changes): as the sequence (P54253 with tags, fused parts or gaps with the stated changes) above

In the case of `O=C1Nc2ccc(I)cc2/C1=C/c1cc(Br)c(O)c(Br)c1` [compound 1, GW5074], the Kd – broadly, the constant that tells how readily two partners part at equilibrium – at Q46-GFP was determined as 60.2 nM; in series [5] (read-out: Kd), 14.7 nM; on flHTT-Q73, 3460 nM. Further, the Koff with Q46-GFP was found to be 0.000305 s⁻¹; in series [5], 0.000133 s⁻¹. The Kon with Q46-GFP amounted to 0.000304 min/nM; in [5] it was 5.43e-05 min/nM. Further, at MBP-ATXN3-Q68, the “binding to MBP-ATXN3-Q68” value is on record as “binded”. For the same compound, in series [1], the “level of mutant ATXN1 protein (His-ATXN1-Q92)” value is “Decreased levels of mutant ATXN1 were observed”. Further, the “concentration range in which the effect of selectively reducing mHTT levels was observed” value in the series with mHTT [2] lay in the range of 30 to 300 nM. For the same compound, the “preferred concentration for selectively reducing mHTT levels” value in the series with mHTT [2] is on record as 100 nM. Moreover, the “wild-type ATXN3 protein level” value in series [3] is reported as “no decrease in wild-type ATXN3 protein level was observed”. Also, the values for the mHTT levels entry at mHTT [4] (2B7/MW1) and at mHTT [4] (presence of the autophagy inhibitor NH4Cl) were “Decreased mHTT levels were observed” and “this effect was not observed”, respectively. The “level of SQSTM1/p62 in the cortices” value in the series on SQSTM1/p62 was “did not change”. For the same compound, the concentration at 2 h in “in vivo” was determined as 81 ng/g. Moreover, in series [6], the “binding between HTTexon1-Q25-MBP and LC3B” value was “but not between HTTexon1-Q25-MBP and LC3B”. The “binding to His-ATXN1-Q92” value at His-ATXN1-Q92 is given as “can bind”.
